Data from US20250319292A1, “MICRONEEDLES AND METHODS FOR TREATING THE SKIN” (THE BRIGHAM AND WOMEN'S HOSPITAL, INC., priority 2021, published 2025).

Key:
THP-1 cells = assay: Cytotoxicity studies of digestion media (TCEP); assay type: cell-based; conditions: TCEP 0.1 mM to 100 mM, 10 minutes
Procedure: Human monocyte THP-1 cells (ATTC) were maintained in RPMI 1640 supplemented with 10% FBS, 2 mM L-glutamine, 25 mM HEPES, 100 μg/mL Normocin™ (InvivoGen) and 100 U/mL penicillin and 100 μg/mL streptomycin. Cell lines were maintained in a humidified incubator at 37° C., 5% CO2.
THP-1 cells were incubated with different concentrations of digestion media (TCEP solution in supplemented media), ranging from 0.1 mM to 100 mM, for 10 minutes. Thereafter, digestion media was removed, and cells were stained using the LIVE/DEAD™ fixable Violet Dead Cell Stain Kit (Thermo Fisher Scientific, USA) following the manufacturer's guidelines. Dead cells were analyzed by flow cytometry using a BD LSRFortessa™ flow cytometer.

Tregs = assay: CCL22-dependent trans-well migration assay; assay type: cell-based, C57BL/6 mice; conditions: 0, 10 and 100 ng/ml, 3 hours, CD3+ T cells
Procedure: Recruitment of Tregs as a function of CCL22 was assessed in a 24-well plate containing a 5 μm-pore polycarbonate Transwell® filter system (Costar Transwell® permeable support #3421). MNs loaded with incremental amounts of CCL22 ([…] and 100 ng) or equivalent dose of soluble CCL22 were added in the receiver wells and incubated at 37° C. for 1 hour. 5×10^5 CD3^+ T cells were magnetically isolated from C57BL/6 mice using mouse T cell isolation kit (EasySep™, #19851) and resuspended in full culture media and added to the top wells. Cells were then incubated at 37° C. and 5% CO2 for 3 hours. Cells in the receiver well were then harvested and stained with Fixed viability dye, anti-CD3, CD4, CD25, and Foxp3 antibodies and analyzed by flow cytometry.
Next, the biological activity of chemokines when loaded in the MNs was examined. Specifically, the ability of CCL22 to mediate Tregs recruitment when delivered using the MN platform through a trans-well migration assay was studied. Briefly, ranging concentrations of CCL22, either MN-doped or soluble, were incubated with CD3^+ T cells, and the number of migrated Tregs was analyzed after 3 hours of incubation by flow cytometry. […] This can stem from the maintenance of a higher gradient of CCL22 when released from the MNs compared to soluble CCL22 (FIG. 3C).

O=C(O)CCP(CCC(=O)O)CCC(=O)O [TCEP, tris (2-carboxyethyl) phosphine]
cell viability (THP-1 cells): highly biocompatible and did not affect cell viability

B1: soluble CCL22: C-C motif chemokine 22 added in solution, from PeproTech (protein, UniProt O00626 25-93, looked up)
C-C motif chemokine 22: GPYGANMEDSVCCRDYVRYRLPLRVVKHFYWTSDSCPRPGVVLLTFRDKEICADPRVPWVKMILNKLSQ
Tregs migration as a function of CCL22 concentration (Tregs): dose-dependent increase of Tregs migration
